Test results taken from PubChem BioAssay AID1259408 (Genetic Toxicology Data Bank (GENE-TOX), 2018).
Active and inactive are the calls of the source. No rule for the calls is given here.

System: GENE-TOX genotoxicity assays, various organisms and cells
Test: GENE-TOX mutagenicity studies
Conditions: for call: Assay Type: In vivo carcinogenicity studies
[1] = Species/Cell Type: Escherichia coli polA (W3119 vs P3478), Assay Type: Rec-assay, DNA effects (bacterial DNA repair), Assay Code: RE1+, Evaluation Type: Evaluation A (Pre-1980)
[2] = Species/Cell Type: Nonhuman, Assay Type: Sister-chromatid exchange (SCE) in vitro, Assay Code: SC2+D, Dose Response: With dose response, Evaluation Type: Evaluation B (Post-1980)
[3] = Species/Cell Type: Drosophila melanogaster, Assay Type: Sex-linked recessive lethal gene mutation, Assay Code: SRL+, Evaluation Type: Evaluation A (Pre-1980)
[4] = Species/Cell Type: Nonhuman, Assay Code: CCG+, Evaluation Type: Evaluation A (Pre-1980)
[5] = Species/Cell Type: Salmonella typhimurium (one or more of the five standard strains: TA98, TA100, TA1535, TA1537, and TA1538), Assay Type: Histidine reverse gene mutation, Ames assay, Assay Code: SAL+, Evaluation Type: Evaluation A (Pre-1980)
[6] = Species/Cell Type: Drosophila melanogaster, Assay Type: Sex-linked recessive lethal gene mutation, Assay Code: SRLT, Evaluation Type: Evaluation A (Pre-1980)

CC1=C(/C=C/C(C)=C/C=C/C(C)=C/C(=O)O)C(C)(C)CCC1
mutagenic call (Species/Cell Type: Human, Assay Type: Sister-chromatid exchange (SCE) in vitro, Assay Code: SC1+D, Dose Response: With dose response, Evaluation Type: Evaluation A (Pre-1980)): active; positive | mutagenic call (Species/Cell Type: Nonhuman, Assay Type: Sister-chromatid exchange (SCE) in vitro, Assay Code: SC2T, Evaluation Type: Evaluation B (Post-1980)): no conclusion

O=CCBr
mutagenic call [1]: active; positive

CN(C)c1ccc2cc3ccc(=[N+](C)C)cc-3sc2c1
mutagenic call (Species/Cell Type: Saccharomyces cerevisiae, Assay Type: Reverse gene mutation, Assay Code: YER-, Evaluation Type: Evaluation A (Pre-1980)): inactive; negative

CCCCOc1ccc(CC(=O)NOC=O)cc1
mutagenic call [2]: active; positive

ClCC1CO1 (stereo unspecified)
mutagenic call [3]: active; positive | mutagenic call [1]: active; positive | mutagenic call (Species/Cell Type: Human lymphocytes or leukocytes, Assay Type: Chromosome aberrations in vitro, Assay Code: CY7+, Evaluation Type: Evaluation A (Pre-1980)): active; positive | mutagenic call (Species/Cell Type: Human lymphocytes or leukocytes, Assay Type: Chromosome aberrations in vivo, Assay Code: CY8+, Evaluation Type: Evaluation A (Pre-1980)): active; positive | mutagenic call (Species/Cell Type: Human lymphocytes, Assay Type: Sister-chromatid exchange (SCE) in vitro, Assay Code: SCL+D, Dose Response: With dose response, Evaluation Type: Evaluation B (Post-1980)): active; positive | mutagenic call (Species/Cell Type: Human, Assay Type: Sister-chromatid exchange (SCE) in vitro, Assay Code: SC1+D, Dose Response: With dose response, Evaluation Type: Evaluation B (Post-1980)): active; positive | mutagenic call (Species/Cell Type: Human, Sex: Male, Assay Type: Sperm morphology, Assay Code: SPH-, Evaluation Type: Evaluation A (Pre-1980)): inactive; negative | mutagenic call (Species/Cell Type: Mammalian polychromatic erythrocytes, Assay Type: Micronucleus test, chromosome aberrations, Assay Code: MNTT, Evaluation Type: Evaluation A (Pre-1980)): no conclusion | mutagenic call (Species/Cell Type: Mouse, Sex: Male, Assay Type: Sperm morphology, Assay Code: SPI-, Evaluation Type: Evaluation A (Pre-1980)): inactive; negative | mutagenic call (Species/Cell Type: Neurospora crassa, Assay Type: Forward gene mutation, Assay Code: NEF+, Evaluation Type: Evaluation A (Pre-1980)): active; positive | mutagenic call (Species/Cell Type: Neurospora crassa, Assay Type: Reverse gene mutation, Assay Code: NER+, Evaluation Type: Evaluation A (Pre-1980)): active; positive | call [4]: active; positive | mutagenic call [2]: active; positive | mutagenic call [5]: active; positive | mutagenic call (Species/Cell Type: Schizosaccharomyces pombe, Assay Type: Forward gene mutation, Assay Code: YEY+, Evaluation Type: Evaluation A (Pre-1980)): active; positive | mutagenic call (Species/Cell Type: Schizosaccharomyces pombe, Assay Type: Reverse gene mutation, Assay Code: YEZ+, Evaluation Type: Evaluation A (Pre-1980)): active; positive

Cc1cc(=O)oc2ccccc12
mutagenic call (Species/Cell Type: Allium cepa, Assay Type: Chromosome aberrations, Assay Code: ALC+, Evaluation Type: Evaluation A (Pre-1980)): active; positive

CN(C)N=Nc1c(F)cc(F)cc1F
mutagenic call [3]: active; positive

[N-]=[N+]=CC(=O)NCC(=O)NN
mutagenic call [5]: active; positive

ClC1C(Cl)C(Cl)C(Cl)C(Cl)C1Cl (stereo unspecified)
mutagenic call (Species/Cell Type: Allium cepa, Assay Type: Chromosome aberrations, Assay Code: ALC+D, Dose Response: With dose response, Evaluation Type: Evaluation A (Pre-1980)): active; positive | mutagenic call [6]: no conclusion | mutagenic call (Species/Cell Type: Hordeum vulgare (barley), Assay Type: Chromosome aberrations, Assay Code: HOC+D, Dose Response: With dose response, Evaluation Type: Evaluation A (Pre-1980)): active; positive | call (Species/Cell Type: Nonhuman, Assay Code: CCG+L, Evaluation Type: Evaluation A (Pre-1980)): active; positive | mutagenic call (Species/Cell Type: Saccharomyces cerevisiae, Assay Type: Mitotic recombination or gene conversion, Assay Code: YEC+, Evaluation Type: Evaluation A (Pre-1980)): active; positive | mutagenic call (Species/Cell Type: Saccharomyces cerevisiae, Assay Type: Reverse gene mutation, Assay Code: YER-*, Activation: With metabolic activation, Evaluation Type: Evaluation A (Pre-1980)): inactive; negative | mutagenic call (Species/Cell Type: Salmonella typhimurium, Serratia marcesens, Assay Type: Forward and reverse gene mutation, host-mediated assay, Assay Code: HM2T, Evaluation Type: Evaluation A (Pre-1980)): no conclusion | mutagenic call (Species/Cell Type: Tradescantia species, Assay Type: Chromosome aberrations, Assay Code: TRC+D, Dose Response: With dose response, Evaluation Type: Evaluation A (Pre-1980)): active; positive | mutagenic call (Species/Cell Type: Vicia faba, Assay Type: Chromosome aberrations, Assay Code: VIC+D, Dose Response: With dose response, Evaluation Type: Evaluation A (Pre-1980)): active; positive

Cc1cc(=Nc2ccc3c(c2)c(-c2ccc(N)cc2)[n+](C)c2cc(N)ccc32)nc(N)n1C
mutagenic call [5]: active; positive

Cc1c(C(=O)O)c(O)cc2c1C(=O)c1c(O)c([C@@H]3O[C@@H](CO)[C@H](O)[C@@H](O)[C@H]3O)c(O)c(O)c1C2=O
mutagenic call (Species/Cell Type: Bacillus subtilis (H17 vs M45), Assay Type: Rec-assay, spot test, DNA effects (bacterial DNA repair), Assay Code: REWT, Evaluation Type: Evaluation A (Pre-1980)): no conclusion | mutagenic call (Species/Cell Type: Bacillus subtilis (H17 vs M45T), Assay Type: Rec-assay, spot test, DNA effects (bacterial DNA repair), Assay Code: REXT, Evaluation Type: Evaluation A (Pre-1980)): no conclusion

COc1ccc(CCC(=O)c2c(O)cc(O)cc2O)cc1O
mutagenic call (Species/Cell Type: Mammalian polychromatic erythrocytes, Assay Type: Micronucleus test, chromosome aberrations, Assay Code: MNTT, Evaluation Type: Evaluation B (Post-1980)): no conclusion

Nc1cccc2cc3ccccc3nc12
mutagenic call (Species/Cell Type: Saccharomyces cerevisiae, Assay Type: Forward gene mutation, Assay Code: YEFT, Evaluation Type: Evaluation A (Pre-1980)): no conclusion | mutagenic call (Species/Cell Type: Saccharomyces cerevisiae, Assay Type: Reverse gene mutation, Assay Code: YERT, Evaluation Type: Evaluation A (Pre-1980)): no conclusion

Cc1ccc2c(C)c(C)[nH]c2c1
mutagenic call (Species/Cell Type: Human lymphocytes, Assay Type: Sister-chromatid exchange (SCE) in vitro, Assay Code: SCL+, Evaluation Type: Evaluation B (Post-1980)): active; positive | mutagenic call (Species/Cell Type: Human, Assay Type: Sister-chromatid exchange (SCE) in vitro, Assay Code: SC1+, Evaluation Type: Evaluation B (Post-1980)): active; positive

CCC[CH2][Sn]([CH2]CCC)([CH2]CCC)[O][Sn]([CH2]CCC)([CH2]CCC)[CH2]CCC
mutagenic call (Species/Cell Type: Mammalian polychromatic erythrocytes, Assay Type: Micronucleus test, chromosome aberrations, Assay Code: MNT+U, Dose Response: Unconfirmed positive response, Evaluation Type: Evaluation B (Post-1980)): active; positive

Cc1ccc2cccc([N+](=O)[O-])c2n1
mutagenic call [5]: active; positive

[Cr]
call (Species/Cell Type: Nonhuman, Assay Code: CCGT, Evaluation Type: Evaluation A (Pre-1980)): no conclusion

C=CC#N
mutagenic call [6]: no conclusion | mutagenic call (Species/Cell Type: Escherichia coli WP2, Assay Type: Tryptophan reverse gene mutation, Assay Code: WP2+D, Dose Response: With dose response, Evaluation Type: Evaluation A (Pre-1980)): active; positive | mutagenic call (Species/Cell Type: Escherichia coli WP2 UVRA, Assay Type: Tryptophan reverse gene mutation, Assay Code: WPU+, Evaluation Type: Evaluation A (Pre-1980)): active; positive | mutagenic call (Species/Cell Type: Mammalian polychromatic erythrocytes, Assay Type: Micronucleus test, chromosome aberrations, Assay Code: MNT-, Evaluation Type: Evaluation B (Post-1980)): inactive; negative | call [4]: active; positive | mutagenic call [2]: active; positive | mutagenic call (Species/Cell Type: Nonhuman, Assay Type: Sister-chromatid exchange (SCE) in vivo, Assay Code: SC3+D, Dose Response: With dose response, Evaluation Type: Evaluation B (Post-1980)): active; positive | mutagenic call (Species/Cell Type: Salmonella typhimurium (one or more of the five standard strains: TA98, TA100, TA1535, TA1537, and TA1538), Assay Type: Histidine reverse gene mutation, Ames assay, Assay Code: SAL+*, Activation: With metabolic activation, Evaluation Type: Evaluation A (Pre-1980)): active; positive | mutagenic call (Species/Cell Type: Syrian hamster embryo (SA7/SHE) cells, Assay Type: Cell transformation, viral enhanced, Assay Code: CT7+, Evaluation Type: Evaluation A (Pre-1980)): active; positive | mutagenic call (Species/Cell Type: Syrian hamster embryo (SHE) cells, Assay Type: Cell transformation, focus assay, Assay Code: CTF+, Evaluation Type: Evaluation A (Pre-1980)): active; positive

COc1ccc(C(=C(c2ccc(OC)cc2)c2ccc(OC)cc2)c2ccc(OC)cc2)cc1
mutagenic call (Species/Cell Type: Salmonella typhimurium (one or more of the five standard strains: TA98, TA100, TA1535, TA1537, and TA1538), Assay Type: Histidine reverse gene mutation, Ames assay, Assay Code: SALT, Evaluation Type: Evaluation A (Pre-1980)): no conclusion

CCC(CC)c1cccc(OC(=O)N(C)N=O)c1
mutagenic call [5]: active; positive

Cc1c2ccccc2c(CCl)c2ccc3ccccc3c12
mutagenic call [5]: active; positive

S=[Se]=S
call [4]: active; positive

O=C(O)C(c1ccc(Cl)cc1)c1ccc(Cl)cc1
mutagenic call [3]: active; positive | mutagenic call (Species/Cell Type: Nonhuman, Assay Type: Chromosome aberrations in vitro, Assay Code: CY&-, Evaluation Type: Evaluation A (Pre-1980)): inactive; negative | mutagenic call (Species/Cell Type: Salmonella typhimurium, Serratia marcesens, Assay Type: Forward and reverse gene mutation, host-mediated assay, Assay Code: HM2-, Evaluation Type: Evaluation A (Pre-1980)): inactive; negative
